What was measured:
[1] = tested on: mouse delayed type hypersensitivity model; assay: Delayed type hypersensitivity (SRBC, footpad swelling) in the mouse; assay type: in vivo; conditions: FIG. 11; 5 mg/kg s.c.; 24 h post challenge
Procedure: 2. Delayed Type Hypersensitivity (DTH)
On day 0, animals were injected intravenously with 10^6 washed SRBC in 0.1 ml saline. Four days later animals were challenged in the right hind footpad with 10^6 washed SRBC in 50 μl saline. Footpad thickness is measured prior to challenge, 24, 48 and 72 hours post challenge using calipers. Footpad swelling is determined as the difference in thickness prior and post challenge. The data are expressed as percentage change from the vehicle treated groups given sensitisation and challenge.
Animals were randomised into 10 groups (n=7-8) and steroids given on day 0 and 4.
Steroids were given on day 0 and 3 subcutaneously. Response at 24 h post challenge. Results given as mean±sem. $, *p<0.05 ANOVA.

[2] = tested on: mouse contact sensitisation model; assay: Cellular infiltrate (anti-CD3 / anti-Mac-1 positive cells) in challenged ears, contact sensitisation; assay type: in vivo, mice; conditions: Experiment 7, FIG. 10; DHEAS 5 mg/kg days 0 and 5; 24 h following challenge
Procedure: Animals were randomised into 7 groups (n=7-10) and steroids given on days 0 and 5. At 24 h following challenge, ears were removed, fixed and stained with either an anti-CD3 (T-cells) or anti-Mac-1 (monocytes/macrophages) antibody and the number of positive cells counted in 10 random fields.

[3] = tested on: mouse contact sensitisation model; assay: Contact sensitisation (oxazalone, ear swelling) in mice; assay type: in vivo; conditions: for increase in ear thickness (steroid alone): 100 μg/mouse s.c. days 0, 4 and 5; for normal ear swelling (steroid alone): Experiment 4, FIG. 7; for normal ear swelling (steroid alone) / ear swelling response (steroid alone): 5 mg/kg s.c. days 0 and 4
Procedure: 1. Contact Sensitisation (CS)
On day 0, mice were painted on their shaved right flank with 50 μl 2.5% oxazalone or vehicle (acetone 4:1 olive oil). On day 5 animals were challenged on their dorsal right ear surface with 25 μl of either 0.75% or 0.25% oxazalone. Prior to ear challenge, and 24, 48 and 72 hour post challenge ear thickness was measured using an engineer's micrometers. Ear swelling is determined as the difference in thickness prior and post challenge. The data are expressed as percentage change from the vehicle treated groups given sensitisation and challenge.
DHEA, DHEAS were administered at various times, generally at time of sensitisation (day 0) and time of challenge (day 3 or 4-DTH model, day 4 or 5-(CS-model) in order to obtain an augmentation of the immune response above non-steroid treated animals.
Different doses of the inhibitors have been used, and compared to the effect of dexamethasone as potential immunosuppressive/anti-inflammatory agents.

[4] = tested on: carrageenan pleurisy; assay: Carrageenan pleurisy; assay type: in vivo, Wistar Rats; conditions: FIG. 14; DEX 1 mg/kg p.o. at T=-1 h; six hours
Procedure: Wistar Rats were anaesthetised and given intra-pleural injections of 0.5% carrageenan in saline at time 0. Six hours later the animals were killed and pleural cavity lavaged with 1 ml. citrated saline. Volume of fluid exudate and exudate cell concentration were measured. Animals were randomised to 5 treatment groups (n=6).

[5] = Experiment 1, FIG. 4, 48 post challenge
[6] = Experiment 2, FIG. 5, 100 μg/mouse s.c. days 0 and 5, 24 h post-challenge
[7] = Metabolites Experiment 3, FIG. 17

C[C@]12CC[C@H](OS(=O)(=O)O)CC1=CC[C@@H]1[C@@H]2CC[C@]2(C)C(=O)CC[C@@H]12 [DHEAS, DHEA sulphate]
foot swelling response (steroid alone) [1]: clearly pro-immune (or pro-inflammatory)
immune and inflammatory cell infiltrate into challenged ears [2]: can augment both immune and inflammatory cell infiltrate into challenged ears
increase in ear thickness (steroid alone) [3, 5]: augmented the normal increase in ear thickness
ear swelling response [3, 6]: significantly augmented the response
anti-glucocorticoid effect on ear swelling ([3]; Experiment 3, FIG. 6, DHEAS 0.0005-50 mg/kg with corticosterone 5 mg/kg s.c. days 0 and 4): functional anti-glucocorticoid effect
normal ear swelling (steroid alone) [3]: augmented the normal ear swelling
ear swelling response (steroid alone) [3, 7]: stimulatory response

C[C@]12CC[C@H](O)CC1=CC[C@@H]1[C@@H]2CC[C@]2(C)C(=O)CC[C@@H]12 [DHEA, Dehydroepiandrosterone]
foot swelling response (steroid alone) [1]: clearly pro-immune (or pro-inflammatory)
increase in ear thickness (steroid alone) [3, 5]: augmented the normal increase in ear thickness
ear swelling response [3, 6]: significantly augmented the response
normal ear swelling (steroid alone) [3]: augmented the normal ear swelling
ear swelling response ([3]; Metabolites Experiment 1, FIG. 15, DHEA 0.005-5 mg/kg, AED 0.05-5 mg/kg s.c. days 0 and 4): can augment the ear swelling response

CN(C)S(=O)(=O)Oc1ccc2c(c1)CC[C@@H]1[C@@H]2CC[C@]2(C)C(=O)CC[C@@H]12 [CT 2210, Estrone-3-0-(N,N-dimethyl)sulphamate]
ear swelling, inhibitor alone ([3]; Experiment 1, FIG. 4, 2 mg/mouse s.c. days 0, 4 and 5, 48 post challenge): able to attenuate the ear swelling seen in the absence of DHEA and DHEAS
reversal of stimulatory effects of DHEA and DHEAS on ear swelling ([3]; Experiment 1, FIG. 4, inhibitor 2 mg/mouse with DHEA or DHEAS 100 μg/mouse s.c. days 0, 4 and 5, 48 post challenge): able to reverse the stimulatory effects of either DHEA and DHEAS

CC12CCC(OS(=O)(=O)O)CC1=CCC1C2CCC2(C)C(O)CCC12 (stereo not drawn) [AEDS]
ear swelling response ([3]; Metabolites Experiment 2, FIG. 16, AEDS 0.0005-5 mg/kg s.c. days 0 and 4): can augment the ear swelling response
dose for augmentation of ear swelling, less than seen with DHEAS ([3]; Metabolites Experiment 2, FIG. 16, relative to DHEAS): at least 1000 fold
substrate for the sulphatase enzyme in vivo [3, 7]: can serve as a physiological substrate for the sulphatase enzyme in vivo
ear swelling response (steroid alone) [3, 7]: stimulatory response

C[C@@H]1C[C@H]2[C@@H]3CCC4=CC(=O)C=C[C@]4(C)[C@@]3(F)[C@@H](O)C[C@]2(C)[C@@]1(O)C(=O)CO [Dexamethasone, dexamethasone]
increase in ear thickness (steroid alone) [3, 5]: reduced the response
ear swelling response [3, 6]: inhibited
normal ear swelling (steroid alone) [3]: inhibited
degree of ear swelling ([3]; Experiment 5, FIG. 8, DEX 5 mg/kg s.c. days 0 and 4, 24 h): inhibited the degree of ear swelling
fluid leakage (exudate) [4]: can completely inhibit fluid leakage
reduction of cellular influx [4]: 68%

Source: patent publication US6013642A, “Use of estrone derivatives as steroid sulphatase inhibitors” (priority 1994, dated 2000)
